Laboratory results as given in PMC3973950, “Synthesis of 5-arylidine amino-1,3,4-thiadiazol-2-[(N-substituted benzyol)]sulphonamides endowed with potent antioxidants and anticancer activity induces growth inhibition in HEK293, BT474 and NCI-H226 cells” (Medicinal Chemistry Research, 2013).

Experiments:
[1] = In vitro cytotoxicity by MTT assay, NCI-H226; format: cell-based; details: human, NCI-H226 lung cancer cells, 0.015 μM, read-out: % Cytotoxicity (100 − % cell survival) of NCI-H226 cell line
In short: (§1)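 After 72 h of compound exposure at 37 °C in 5 % CO2, MTT was added for 4 h and the propanol-solubilised formazan was read at 490 nm. Monolayers (~10,000 cells/well, RPMI-1640 plus 10 % newborn calf serum) had been allowed to form for 24 h beforehand.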

[2] = system: NCI-H226 (lung cancer cell line); assay: In vitro cytotoxicity by MTT assay, NCI-H226; format: cell-based; details: Homo sapiens, 72 h, read-out: % Cytotoxicity (100 − % cell survival) of NCI-H226 cell line; for cytotoxicity at 0.005 µM: NCI-H226, 0.005 μM; for cytotoxicity at 0.045 µM: NCI-H226, 0.045 μM; for cytotoxicity at 0.13 µM: NCI-H226, 0.13 μM; for cytotoxicity at 0.41 µM: NCI-H226, 0.41 μM; for cytotoxicity at 1.23 µM: NCI-H226, 1.23 μM; for cytotoxicity at 3.7 µM: NCI-H226, 3.7 μM; for cytotoxicity at 11.11 µM: NCI-H226, 11.11 μM; for cytotoxicity at 33.33 µM: NCI-H226, 33.33 μM; for cytotoxicity at 100 µM: NCI-H226, 100 μM
In short: as §1

[3] = In vitro cytotoxicity by MTT assay, HEK 293; format: cell-based, human; details: human, HEK 293 cells, read-out: % cytotoxicity (100 − % cell survival) of HEK 293 cell line
In short: as §1

[4] = system: BT474 (breast cancer cell line); assay: In vitro cytotoxicity by MTT assay, BT474; format: cell-based; details: Homo sapiens, 72 h, read-out: % cytotoxicity (100 − % cell survival) of BT474 cell line; for cytotoxicity at 0.005 µM: BT-474, 0.005 μM; for cytotoxicity at 0.015 µM: BT-474, 0.015 μM; for cytotoxicity at 0.045 µM: BT-474, 0.045 μM; for cytotoxicity at 0.13 µM: BT-474, 0.13 μM; for cytotoxicity at 0.41 µM: BT-474, 0.41 μM; for cytotoxicity at 1.23 µM: BT-474, 1.23 μM; for cytotoxicity at 3.7 µM: BT-474, 3.7 μM; for cytotoxicity at 11.11 µM: BT-474, 11.11 μM; for cytotoxicity at 33.33 µM: BT-474, 33.33 μM; for cytotoxicity at 100 µM: BT-474, 100 μM
In short: as §1

Row | SMILES | cytotoxicity at 72 h, 0.015 µM [1] [%] | cytotoxicity at 0.005 µM [2] [%] | cytotoxicity at 0.045 µM [2] [%] | cytotoxicity at 0.13 µM [2] [%] | cytotoxicity at 0.41 µM [2] [%] | cytotoxicity at 1.23 µM [2] [%] | cytotoxicity at 3.7 µM [2] [%] | cytotoxicity at 11.11 µM [2] [%] | cytotoxicity at 33.33 µM [2] [%] | cytotoxicity at 100 µM [2] [%] | cytotoxicity at 72 h, 0.005 µM [3] [%] | cytotoxicity at 72 h, 0.015 µM [3] [%] | cytotoxicity at 72 h, 0.045 µM [3] [%] | cytotoxicity at 72 h, 0.13 µM [3] [%] | cytotoxicity at 72 h, 0.41 µM [3] [%] | cytotoxicity at 72 h, 1.23 µM [3] [%] | cytotoxicity at 72 h, 3.7 µM [3] [%] | cytotoxicity at 72 h, 11.11 µM [3] [%] | cytotoxicity at 72 h, 33.33 µM [3] [%] | cytotoxicity at 72 h, 100 µM [3] [%] | also measured
1 | Nc1ccc(S(=O)(=O)Nc2nnc(S(=O)(=O)NC(=O)c3ccccc3O)s2)cc1 [Compound 7d] | 34.1 | 33.7 | 34.6 | 35.2 | 35.7 | 35.4 | 36 | 37.9 | 38.5 | 38.9 | 18.9 | 19.9 | 20.3 | 22.2 | 24.1 | 25.3 | 26.6 | 27.2 | 29 | 29.6 | cytotoxicity at 0.005 µM [4]: 28.5%; cytotoxicity at 0.015 µM [4]: 29.3%; cytotoxicity at 0.045 µM [4]: 30.6%; cytotoxicity at 0.13 µM [4]: 31.9%; cytotoxicity at 0.41 µM [4]: 33.1%; cytotoxicity at 1.23 µM [4]: 34.4%; cytotoxicity at 3.7 µM [4]: 35.7%; cytotoxicity at 11.11 µM [4]: 36.1%; cytotoxicity at 33.33 µM [4]: 38%; cytotoxicity at 100 µM [4]: 38.9%
2 | Nc1ccc(S(=O)(=O)Nc2nnc(S(=O)(=O)NC(=O)c3ccc([N+](=O)[O-])cc3)s2)cc1 [Compound 7e] | 30 | 29 | 30.5 | 31.8 | 33.5 | 34.5 | 34.9 | 35.5 | 35.8 | 36 | 26.9 | 29 | 30.2 | 32.1 | 34.7 | 35.5 | 36.4 | 38.1 | 38.8 | 39.8 | cytotoxicity at 0.005 µM [4]: 43.9%; cytotoxicity at 0.015 µM [4]: 44.2%; cytotoxicity at 0.045 µM [4]: 45.4%; cytotoxicity at 0.13 µM [4]: 46.3%; cytotoxicity at 0.41 µM [4]: 47.1%; cytotoxicity at 1.23 µM [4]: 47.6%; cytotoxicity at 3.7 µM [4]: 48.5%; cytotoxicity at 11.11 µM [4]: 49.1%; cytotoxicity at 33.33 µM [4]: 50.4%; cytotoxicity at 100 µM [4]: 51.2%
3 | Nc1ccc(S(=O)(=O)Nc2nnc(S(=O)(=O)NC(=O)c3ccc(Cl)cc3)s2)cc1 [Compound 7g] | 32.8 | 30.7 | 33.6 | 35.3 | 35.7 | 36.1 | 36.3 | 37.1 | 38.7 | 39 | 29.1 | 31.2 | 33.3 | 35.1 | 35.9 | 36.5 | 37.2 | 38.1 | 40.3 | 42.9 | cytotoxicity at 0.005 µM [4]: 27.3%; cytotoxicity at 0.015 µM [4]: 28.4%; cytotoxicity at 0.045 µM [4]: 30%; cytotoxicity at 0.13 µM [4]: 31.3%; cytotoxicity at 0.41 µM [4]: 32.7%; cytotoxicity at 1.23 µM [4]: 33.2%; cytotoxicity at 3.7 µM [4]: 34.7%; cytotoxicity at 11.11 µM [4]: 37.7%; cytotoxicity at 33.33 µM [4]: 38.5%; cytotoxicity at 100 µM [4]: 40.1%
4 | NS(=O)(=O)c1ccc(S(=O)(=O)Nc2cccc3c(Cl)c[nH]c23)cc1 [ISL, indisulam, reference compound] | 28.4 | 26.4 | 30.2 | 31.1 | 33 | 34.1 | 36.5 | 38.6 | 44.7 | 59.3 | 42.3 | 46.9 | 48.6 | 50.1 | 51.1 | 52.2 | 55.4 | 57.8 | 61.2 | 69.4 | cytotoxicity at 0.005 µM [4]: 42.2%; cytotoxicity at 0.015 µM [4]: 45%; cytotoxicity at 0.045 µM [4]: 46.4%; cytotoxicity at 0.13 µM [4]: 49%; cytotoxicity at 0.41 µM [4]: 50.8%; cytotoxicity at 1.23 µM [4]: 52.9%; cytotoxicity at 3.7 µM [4]: 54.7%; cytotoxicity at 11.11 µM [4]: 62.5%; cytotoxicity at 33.33 µM [4]: 66.1%; cytotoxicity at 100 µM [4]: 73.5%
